Test results reported in PubChem BioAssay (NCI).
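Each compound was tested at five concentrations against cells in 96-well plates for 48 hours. Here, GI50 denotes the concentration required for 50% inhibition of growth. TGI: concentration producing complete growth inhibition.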

Columns and labels:
Experiment in all cases: NCI-60 cell line screen, 48 h
HOP-92 NSCLC = system: HOP-92 NSCLC
786-0 renal = system: 786-0 renal
HT29 colon = system: HT29 colon
SN12C renal = system: SN12C renal
SK-OV-3 ovarian = system: SK-OV-3 ovarian
SK-MEL-5 melanoma = system: SK-MEL-5 melanoma
MDA-MB-435 = system: MDA-MB-435
SNB-75 CNS = system: SNB-75 CNS
M14 melanoma = system: M14 melanoma
SR leukemia = system: SR leukemia

`CCN(CC)CCOc1ccc(/C=C2\CC3C4CCC5=CC(=O)CC[C@]5(C)C4CC[C@]3(C)C2=O)cc1OC` (some centres undefined) gave a GI50 (HOP-92 NSCLC) of 3.14 µM, a TGI (HOP-92 NSCLC) of 7.51 µM and a GI50 (786-0 renal) of 2.18 µM. The TGI (786-0 renal) was 4.61 µM, the GI50 (HT29 colon) was 1.3 µM and the TGI (HT29 colon) was > 100 µM. The GI50 (SN12C renal) was 2.6 µM, the TGI (SN12C renal) was 7.06 µM and the GI50 (SK-OV-3 ovarian) was 2.66 µM. The TGI (SK-OV-3 ovarian) was 8.46 µM, the GI50 (SK-MEL-5 melanoma) was 1.63 µM and the TGI (SK-MEL-5 melanoma) was 3.28 µM. For the same molecule, the GI50 (MDA-MB-435) was 1.87 µM, the TGI (MDA-MB-435) was 4 µM and the GI50 (SNB-75 CNS) was 3.02 µM. For the same molecule, the TGI (SNB-75 CNS) was 7.78 µM, the GI50 (M14 melanoma) was 2.08 µM and the TGI (M14 melanoma) was 3.96 µM.
With `CCCN(CCC)c1ccc(CO)c(C)c1` the GI50 (786-0 renal) was > 100 µM, the TGI (786-0 renal) was > 100 µM and the GI50 (HT29 colon) was 90.2 µM. For the same molecule, the TGI (HT29 colon) was > 100 µM, the GI50 (SN12C renal) was 79.4 µM and the TGI (SN12C renal) was > 100 µM. The GI50 (SK-OV-3 ovarian) was > 100 µM, the TGI (SK-OV-3 ovarian) was > 100 µM and the GI50 (SK-MEL-5 melanoma) was 18.9 µM. For the same molecule, the TGI (SK-MEL-5 melanoma) was 62.3 µM, the GI50 (MDA-MB-435) was 76.8 µM and the TGI (MDA-MB-435) was > 100 µM. The GI50 (SNB-75 CNS) was 68.2 µM, the TGI (SNB-75 CNS) was > 100 µM and the GI50 (M14 melanoma) was > 100 µM. The TGI (M14 melanoma) was > 100 µM.
With `COc1ccc2c3c1C(=O)CCC3CO2` (centres undefined) the TGI (HOP-92 NSCLC) was > 100 µM, the TGI (786-0 renal) was > 100 µM and the TGI (HT29 colon) was > 100 µM. For the same molecule, the TGI (SN12C renal) was > 100 µM, the TGI (SK-OV-3 ovarian) was > 100 µM and the TGI (SK-MEL-5 melanoma) was > 100 µM. For the same molecule, the TGI (M14 melanoma) was > 100 µM.
`CC(=O)OC12c3ccccc3C1CCCCCC21OCCCO1` (centres undefined) was tested, and the TGI (786-0 renal) was > 100 µM, the TGI (HT29 colon) was > 100 µM and the TGI (SN12C renal) was > 100 µM. For the same molecule, the TGI (SR leukemia) was > 100 µM, the TGI (SK-OV-3 ovarian) was > 100 µM and the TGI (SK-MEL-5 melanoma) was > 100 µM. The TGI (SNB-75 CNS) was > 100 µM and the TGI (M14 melanoma) was > 100 µM.
For `CC(=O)N1CC2Nc3ccccc3C2CC1CO` (centres undefined), the TGI (HOP-92 NSCLC) was > 100 µM, the TGI (786-0 renal) was > 100 µM and the TGI (HT29 colon) was > 100 µM. The TGI (SN12C renal) was > 100 µM, the TGI (SK-OV-3 ovarian) was > 100 µM and the TGI (SK-MEL-5 melanoma) was > 100 µM. The TGI (SNB-75 CNS) was > 100 µM and the TGI (M14 melanoma) was > 100 µM.
In the case of `O=c1ccccc2cccc(O)c12`, the TGI (HOP-92 NSCLC) is reported as > 100 µM, the TGI (786-0 renal) is reported as > 100 µM and the TGI (HT29 colon) is reported as > 100 µM. For the same molecule, the TGI (SN12C renal) was > 100 µM, the TGI (SK-OV-3 ovarian) was > 100 µM and the TGI (SK-MEL-5 melanoma) was > 100 µM. The TGI (SNB-75 CNS) was > 100 µM and the TGI (M14 melanoma) was > 100 µM.
With `O=c1cc(Cl)nc[nH]1` the TGI (786-0 renal) was > 100 µM, the TGI (HT29 colon) was > 100 µM and the TGI (SN12C renal) was > 100 µM. For the same molecule, the TGI (SK-OV-3 ovarian) was > 100 µM, the TGI (SK-MEL-5 melanoma) was > 100 µM and the TGI (SNB-75 CNS) was > 100 µM. For the same molecule, the TGI (M14 melanoma) was > 100 µM.
With `Cc1cc(NS(=O)(=O)c2ccc(NC(=O)c3cccc4c(N)c5ccccc5nc34)cc2)no1` the TGI (786-0 renal) was 33.7 µM, the TGI (HT29 colon) was 80.8 µM and the TGI (SN12C renal) was 40.3 µM. The TGI (SK-OV-3 ovarian) was 75.5 µM, the TGI (SNB-75 CNS) was > 100 µM and the TGI (M14 melanoma) was 54 µM.
With `COC(OC)c1cccc2c1C1(O)CCC3(CC21)OCCCCO3` (centres undefined) the TGI (786-0 renal) was > 100 µM, the TGI (HT29 colon) was > 100 µM and the TGI (SN12C renal) was > 100 µM. The TGI (SR leukemia) was > 100 µM, the TGI (SK-OV-3 ovarian) was > 100 µM and the TGI (SK-MEL-5 melanoma) was > 100 µM. For the same molecule, the TGI (SNB-75 CNS) was > 100 µM and the TGI (M14 melanoma) was > 100 µM.
`CN(C)CCn1c2ccccc2c2nc3cc4ccccc4cc3nc21` gave a TGI (786-0 renal) of 16 µM, a TGI (HT29 colon) of 15 µM and a TGI (SN12C renal) of 17.8 µM. For the same molecule, the TGI (SK-OV-3 ovarian) was 23.4 µM, the TGI (SK-MEL-5 melanoma) was 26.5 µM and the TGI (M14 melanoma) was 16.4 µM.
For `O=c1[nH]c(Br)nc2c(Br)c[nH]c12`, the TGI (HOP-92 NSCLC) was > 100 µM, the TGI (786-0 renal) was > 100 µM and the TGI (HT29 colon) was > 100 µM. The TGI (SN12C renal) was > 100 µM, the TGI (SK-OV-3 ovarian) was > 100 µM and the TGI (SK-MEL-5 melanoma) was > 100 µM. For the same molecule, the TGI (SNB-75 CNS) was > 100 µM and the TGI (M14 melanoma) was > 100 µM.
`CCC[CH2][Sn]([CH2]CCC)([O]C(=O)c1cccc(F)c1)[O]C(=O)c1cccc(F)c1` was tested, and the GI50 (786-0 renal) was 1.19 µM, the TGI (786-0 renal) was 2.49 µM and the GI50 (HT29 colon) was 1.73 µM. For the same molecule, the TGI (HT29 colon) was 3.38 µM, the GI50 (SN12C renal) was 1.29 µM and the TGI (SN12C renal) was 3.16 µM. It also gave a GI50 (SK-OV-3 ovarian) of 1.84 µM, a TGI (SK-OV-3 ovarian) of 3.45 µM and a GI50 (SK-MEL-5 melanoma) of 1.39 µM. The TGI (SK-MEL-5 melanoma) was 2.76 µM, the GI50 (SNB-75 CNS) was 0.657 µM and the TGI (SNB-75 CNS) was 1.94 µM. The GI50 (M14 melanoma) was 1.34 µM and the TGI (M14 melanoma) was 2.88 µM.
